Laboratory results taken from PubChem BioAssay AID1963873 (Molecular Pharmacology Branch, DTP, NCI, 2024).

Tested on: 276233-004-R-J1-PDC KRAS spheroids with HUVEC/MSC, viability
Assay: Anticancer human tumor 276233-004-R-J1-PDC patient-derived colon adenocarcinoma cell line growth inhibition [KRAS2]
Conditions: for IC50: curve of first compound; for viability, T/C: stronger effect = lower value
In short: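 Combination screen of spheroid viability in tumor-cell co-cultures with endothelial (HUVEC) and mesenchymal stem cell stroma. Each agent was tested in half-log dilutions, topping at clinical Cmax or at 10 microM without a known Cmax.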

[1] = second compound 0.1 µM, first compound 0.0316 µM
[2] = second compound 0.1 µM, first compound 0.1 µM
[3] = second compound 0.1 µM, first compound 0.316 µM
[4] = second compound 0.1 µM, first compound 1 µM
[5] = second compound 0.1 µM, first compound 3.16 µM
[6] = second compound 0.316 µM, first compound 0.0316 µM
[7] = second compound 0.316 µM, first compound 0.1 µM
[8] = second compound 0.316 µM, first compound 0.316 µM
[9] = second compound 0.316 µM, first compound 1 µM
[10] = second compound 0.316 µM, first compound 3.16 µM
[11] = second compound 1 µM, first compound 0.0316 µM
[12] = second compound 1 µM, first compound 0.1 µM
[13] = second compound 1 µM, first compound 0.316 µM
[14] = second compound 1 µM, first compound 1 µM
[15] = second compound 1 µM, first compound 3.16 µM
[16] = second compound 3.16 µM, first compound 0.0316 µM
[17] = second compound 3.16 µM, first compound 0.1 µM
[18] = second compound 3.16 µM, first compound 0.316 µM
[19] = second compound 3.16 µM, first compound 1 µM
[20] = second compound 3.16 µM, first compound 3.16 µM
[21] = second compound 10 µM, first compound 0.0316 µM
[22] = second compound 10 µM, first compound 0.1 µM
[23] = second compound 10 µM, first compound 0.316 µM
[24] = second compound 10 µM, first compound 1 µM
[25] = second compound 10 µM, first compound 3.16 µM
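Also: cells exposed to agents for seven days before viability read.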
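For viability, T/C in this document: 100% = DMSO vehicle control wells and lower values mean fewer viable cells.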

Row | SMILES | IC50 (second compound 0.1 µM) [µM] | IC50 (second compound 0.316 µM) [µM] | IC50 (second compound 1 µM) [µM] | IC50 (second compound 3.16 µM) [µM] | IC50 (second compound 10 µM) [µM] | viability, T/C [1] [%] | viability, T/C [2] [%] | viability, T/C [3] [%] | viability, T/C [4] [%] | viability, T/C [5] [%] | viability, T/C [6] [%] | viability, T/C [7] [%] | viability, T/C [8] [%] | viability, T/C [9] [%] | viability, T/C [10] [%] | viability, T/C [11] [%] | viability, T/C [12] [%] | viability, T/C [13] [%] | viability, T/C [14] [%] | viability, T/C [15] [%] | further results
1 | CC1(C)CCC(CN2CCN(c3ccc(C(=O)NS(=O)(=O)c4ccc(NCC5CCOCC5)c([N+](=O)[O-])c4)c(Oc4cnc5[nH]ccc5c4)c3)CC2)=C(c2ccc(Cl)cc2)C1 + CNCc1ccccc1-c1csc(C(C)Nc2nc(C)nc3cc(OC)c(OC)cc23)c1 | > 10 | 7.26 | > 10 | < 0.0316 | < 0.0316 | 81.9 | 111 | 105 | 75.4 | 79.5 | 102 | 94.9 | 77.5 | 103 | 69.9 | 110 | 51.5 | 65.7 | 59.4 | 58.5 | viability, T/C (second compound 0.1 µM, first compound 10 µM): 67.3%; viability, T/C (second compound 0.316 µM, first compound 10 µM): 42.3%; viability, T/C (second compound 1 µM, first compound 10 µM): 42%; viability, T/C [16]: 0.58%; viability, T/C [17]: 0.56%; viability, T/C [18]: 0.78%; viability, T/C [19]: 0.7%; viability, T/C [20]: 0.34%; viability, T/C (second compound 3.16 µM, first compound 10 µM): 1.88%; viability, T/C [21]: 0.18%; viability, T/C [22]: 0.21%; viability, T/C [23]: 0.17%; viability, T/C [24]: 0.17%; viability, T/C [25]: 0.39%; viability, T/C (second compound 10 µM, first compound 10 µM): 0.28%
2 | CC1COCCN1c1cc(-c2ccnn2C)c2ccnc(-c3ccn[nH]3)c2n1 (stereo not given) + C=CC(=O)N1CCN(c2nc(=O)n(-c3c(C)ccnc3C(C)C)c3nc(-c4c(O)cccc4F)c(F)cc23)C(C)C1 | > 3.16 | > 3.16 | > 3.16 | > 3.16 | 1 | 104 | 88.4 | 109 | 63.1 | 54.8 | 96.2 | 97.1 | 77.6 | 74.5 | 55.1 | 105 | 84.6 | 76.6 | 72.4 | 61.7 | viability, T/C (second compound 0.1 µM, first compound 0.01 µM): 112%; viability, T/C (second compound 0.316 µM, first compound 0.01 µM): 96.3%; viability, T/C (second compound 1 µM, first compound 0.01 µM): 96%; viability, T/C (second compound 3.16 µM, first compound 0.01 µM): 114%; viability, T/C [16]: 110%; viability, T/C [17]: 78.9%; viability, T/C [18]: 79.5%; viability, T/C [19]: 61.7%; viability, T/C [20]: 71%; viability, T/C (second compound 10 µM, first compound 0.01 µM): 66%; viability, T/C [21]: 62.9%; viability, T/C [22]: 74.2%; viability, T/C [23]: 43.8%; viability, T/C [24]: 51.2%; viability, T/C [25]: 58.7%
